Data: ChEMBL document CHEMBL3769302, “2-Oxo-1,2-dihydropyridinyl-3-yl amide-based GPa inhibitors: Design, synthesis and structure-activity relationship study” (Eur J Med Chem, 2016)

Key:
[1] = biological target: T1, Glycogen phosphorylase, muscle form (Oryctolagus cuniculus, UniProt P00489); experiment: Inhibition of rabbit muscle glycogen phosphorylase-a assessed as formation of inorganic phosphate from glucose-1-phosphate by colorimetry
T1 sequence (P00489 whole entry): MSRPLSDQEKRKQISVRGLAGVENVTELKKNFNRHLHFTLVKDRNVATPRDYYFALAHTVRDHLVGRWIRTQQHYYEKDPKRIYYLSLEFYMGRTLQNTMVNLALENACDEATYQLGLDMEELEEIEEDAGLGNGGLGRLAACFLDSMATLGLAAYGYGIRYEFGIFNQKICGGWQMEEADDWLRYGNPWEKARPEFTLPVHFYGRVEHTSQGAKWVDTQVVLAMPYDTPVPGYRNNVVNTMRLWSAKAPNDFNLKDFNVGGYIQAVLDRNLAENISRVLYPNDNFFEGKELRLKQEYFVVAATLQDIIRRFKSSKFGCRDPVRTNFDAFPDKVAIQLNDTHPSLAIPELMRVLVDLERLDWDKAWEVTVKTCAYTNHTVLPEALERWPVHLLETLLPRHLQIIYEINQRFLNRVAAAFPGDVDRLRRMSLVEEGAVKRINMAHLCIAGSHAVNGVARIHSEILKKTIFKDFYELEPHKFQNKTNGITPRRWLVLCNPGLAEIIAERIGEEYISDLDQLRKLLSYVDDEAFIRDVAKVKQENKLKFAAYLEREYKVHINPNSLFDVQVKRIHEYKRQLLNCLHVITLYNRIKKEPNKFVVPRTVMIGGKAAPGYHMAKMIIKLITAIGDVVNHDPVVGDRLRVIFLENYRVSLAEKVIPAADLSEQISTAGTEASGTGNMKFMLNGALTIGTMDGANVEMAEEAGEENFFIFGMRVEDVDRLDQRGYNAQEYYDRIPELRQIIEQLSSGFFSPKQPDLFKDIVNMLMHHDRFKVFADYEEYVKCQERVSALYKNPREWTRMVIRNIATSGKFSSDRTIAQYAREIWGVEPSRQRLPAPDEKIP

[2] = biological target: T2, Glycogen phosphorylase, muscle form (Oryctolagus cuniculus) (UniProt P00489); experiment: Inhibition of rabbit muscle glycogen phosphorylase-a assessed as formation of inorganic phosphate from glucose-1-phosphate at 20 uM by colorimetry
T2 sequence (whole entry): T1 sequence (P00489 whole entry)

[3] = biological target: T2, Glycogen phosphorylase, muscle form (Oryctolagus cuniculus); experiment: Inhibition of rabbit muscle glycogen phosphorylase-a assessed as formation of inorganic phosphate from glucose-1-phosphate at 222 uM by colorimetry
[4] = biological target: T2, Glycogen phosphorylase, muscle form (Oryctolagus cuniculus); experiment: Inhibition of rabbit muscle glycogen phosphorylase-a assessed as formation of inorganic phosphate from glucose-1-phosphate at 90 uM by colorimetry
[5] = biological target: T2, Glycogen phosphorylase, muscle form (Oryctolagus cuniculus); experiment: Inhibition of rabbit muscle glycogen phosphorylase-a assessed as formation of inorganic phosphate from glucose-1-phosphate at 444 uM by colorimetry
[6] = biological target: T2, Glycogen phosphorylase, muscle form (Oryctolagus cuniculus); experiment: Inhibition of rabbit muscle glycogen phosphorylase-a assessed as formation of inorganic phosphate from glucose-1-phosphate at 44 uM by colorimetry
[7] = biological target: T2, Glycogen phosphorylase, muscle form (Oryctolagus cuniculus); experiment: Inhibition of rabbit muscle glycogen phosphorylase-a assessed as formation of inorganic phosphate from glucose-1-phosphate at 440 uM by colorimetry
[8] = biological target: T2, Glycogen phosphorylase, muscle form (Oryctolagus cuniculus); experiment: Inhibition of rabbit muscle glycogen phosphorylase-a assessed as formation of inorganic phosphate from glucose-1-phosphate at 4.4 mM by colorimetry
[9] = biological target: T2, Glycogen phosphorylase, muscle form (Oryctolagus cuniculus); experiment: Inhibition of rabbit muscle glycogen phosphorylase-a assessed as formation of inorganic phosphate from glucose-1-phosphate at 11.1 uM by colorimetry

IC50 ([1]; read-out: IC50)	inhibition [3]	SMILES	further results
57 µM	–	O=C(Cn1cccc(NCc2ccccc2Cl)c1=O)Nc1ccc(Cl)c(Cl)c1	–
10.2 µM	–	O=C(Cn1cccc(NCc2ccc(Cl)c(Cl)c2)c1=O)NCc1ccccc1	–
–	–	O=C(Cn1cccc(NCc2cccc(Cl)c2)c1=O)Nc1ccc(Cl)c(Cl)c1	inhibition [2]: 33%
–	37%	Cc1ccc(S(=O)(=O)Nc2cccn(CC(=O)NCc3ccc(Cl)c(Cl)c3)c2=O)cc1	–
–	43%	CCOC(=O)Cn1cccc(NCc2ccc(Cl)c(Cl)c2)c1=O	–
–	–	O=C(Cn1cccc(NCc2ccccc2)c1=O)Nc1ccc(Cl)c(Cl)c1	inhibition [4]: 41%
–	–	O=C(Cn1cccc(NCc2ccccc2)c1=O)NCCc1ccc(Cl)c(Cl)c1	inhibition [5]: 80%
2.1 µM	–	O=C(Cn1cccc(NCc2ccc(Cl)cc2)c1=O)NCc1ccc(Cl)c(Cl)c1	–
–	98%	O=C(Cn1cccc(NCc2ccc(Cl)c(Cl)c2)c1=O)Nc1ccc(Cl)c(Cl)c1	IC50 ([1]; read-out: IC50(app)): 18.5 µM
–	–	O=C(Cn1cccc(NCc2ccccc2)c1=O)NCCc1ccc(Cl)cc1Cl	inhibition [6]: 93%
18.5 µM	77%	O=C(Cn1cccc(NCc2ccccc2Cl)c1=O)NCc1ccc(Cl)c(Cl)c1	–
68 µM	–	O=C(Cn1cccc(NCCCc2ccccc2)c1=O)NCCc1ccc(Cl)c(Cl)c1	–
–	–	O=C(Cn1cccc(NCc2ccc(Cl)c(Cl)c2)c1=O)Nc1ccccc1	inhibition [7]: 19%
–	100%	O=C(Cn1cccc(NC(=O)c2ccccc2)c1=O)Nc1ccc(Cl)c(Cl)c1	IC50 ([1]; read-out: IC50(app)): 13 µM
–	–	O=C(Cn1cccc(NCc2ccc(Cl)c(Cl)c2)c1=O)NCCc1ccc(Cl)cc1Cl	inhibition [6]: 22%
1.92 µM	–	O=C(Cn1cccc(NCc2ccc(Cl)c(Cl)c2)c1=O)NCc1ccc(Cl)c(Cl)c1	–
–	75%	CCOC(=O)Cn1cccc(NCc2cccn2S(=O)(=O)c2ccc(C)cc2)c1=O	–
–	75%	CCOC(=O)Cn1cccc(NCc2ccc(Cl)cc2)c1=O	–
–	–	O=C(Cn1cccc(NCc2ccc(Cl)cc2)c1=O)Nc1ccc(Cl)c(Cl)c1	IC50 [1]: Not Active
5.66 µM	–	O=C(Cn1cccc(NCc2cccc(Cl)c2)c1=O)NCc1ccc(Cl)c(Cl)c1	–
3.4 µM	–	Cc1ccc(S(=O)(=O)n2cccc2CNc2cccn(CC(=O)NCc3ccc(Cl)c(Cl)c3)c2=O)cc1	–
–	–	O=C(Cn1cccc(NCCCc2ccccc2)c1=O)NCc1ccc(Cl)c(Cl)c1	inhibition [8]: 33%
–	–	O=C(Cn1cccc(NCc2ccc([N+](=O)[O-])cc2)c1=O)NCc1ccc(Cl)c(Cl)c1	IC50 ([1]; read-out: IC50(app)): 2.5 µM; inhibition [9]: 100%
–	73%	O=C(Cn1cccc(NCc2cccs2)c1=O)NCc1ccc(Cl)c(Cl)c1	IC50 ([1]; read-out: IC50(app)): 19.5 µM
–	–	O=C(Cn1cccc(NCc2ccccn2)c1=O)NCc1ccc(Cl)c(Cl)c1	IC50 [1]: Not Active
–	–	O=C(Cn1cccc(NCc2ccc(Cl)c(Cl)c2)c1=O)NCCc1ccc(Cl)c(Cl)c1	IC50 ([1]; read-out: IC50(app)): 22.5 µM; inhibition [9]: 98%
–	–	O=C(Cn1cccc(NCc2ccccc2)c1=O)Nc1ccccc1	IC50 [1]: Not Active
–	67%	CCCNC(=O)Cn1cccc(NCc2ccc(Cl)c(Cl)c2)c1=O	–
31.3 µM	–	O=C(Cn1cccc(NCc2ccc(Cl)c(Cl)c2)c1=O)NCCc1ccccc1	–
